Patent publication US10622572B2, “Organic thin-film transistor and method for manufacturing the same, material for organic thin-film transistor, composition for organic thin-film transistor, compound, and organic semiconductor film” (FUJIFILM Corporation, priority 2015, dated 2020)
Like-named read-outs stand apart in the source and are kept apart here.

Test: Solubility in organic solvents
Assay type: physicochemical
Conditions: organic solvent or mixture, thermodynamic from solid
[1] = 5 mg in 1 mL anisole, read-out: Solubility Anisole
[2] = 5 mg in 1 mL chloroform, read-out: Solubility Chloroform
[3] = 5 mg in 1 mL tetrahydrofuran, read-out: Solubility Tetrahydrofuran
[4] = 5 mg in 1 mL tetralin, read-out: Solubility Tetralin
[5] = 5 mg in 1 mL toluene, read-out: Solubility Toluene

| Structure (SMILES) | solubility [1] | solubility [2] | solubility [3] | solubility [4] | solubility [5] |
| --- | --- | --- | --- | --- | --- |
| CC(C)[Si](C#Cc1cc2c(cc(C#C[Si](C(C)C)(C(C)C)C(C)C)c3c4ccsc4ccc23)c2ccc3sccc3c12)(C(C)C)C(C)C [Compound 1] | > 5000 µg/mL | > 5000 µg/mL | > 5000 µg/mL | > 5000 µg/mL | > 5000 µg/mL |
| CC(C)[Si](C#Cc1cc2c(cc(C#C[Si](C(C)C)(C(C)C)C(C)C)c3c2ccc2ccsc23)c2ccc3ccsc3c12)(C(C)C)C(C)C [Compound 2] | > 5000 µg/mL | > 5000 µg/mL | > 5000 µg/mL | > 5000 µg/mL | > 5000 µg/mL |
| CC(C)[Si](C#Cc1cc2c(cc(C#C[Si](C(C)C)(C(C)C)C(C)C)c3c4cc(F)sc4ccc23)c2ccc3sc(F)cc3c12)(C(C)C)C(C)C [Compound 3] | > 5000 µg/mL | > 5000 µg/mL | > 5000 µg/mL | > 5000 µg/mL | > 5000 µg/mL |
| CC(C)[Si](C#Cc1cc2c(cc(C#C[Si](C(C)C)(C(C)C)C(C)C)c3c2ccc2cc(F)sc23)c2ccc3cc(F)sc3c12)(C(C)C)C(C)C [Compound 4] | > 5000 µg/mL | > 5000 µg/mL | > 5000 µg/mL | > 5000 µg/mL | > 5000 µg/mL |
